Test results as given in PubChem BioAssay (NCI).
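Dose response: 5 concentrations. Exposure: 48 h. Format: 96-well plates. Endpoint: linear interpolation; highest concentration if not reached. At the TGI there is no net growth.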

Tests used:
Assay in all cases: NCI-60 cell line screen, 48 h
786-0 renal = system: 786-0 renal
A498 renal = system: A498 renal
A549 NSCLC = system: A549 NSCLC
ACHN renal = system: ACHN renal
BT-549 breast = system: BT-549 breast
CAKI-1 renal = system: CAKI-1 renal
CCRF-CEM leukemia = system: CCRF-CEM leukemia
COLO 205 colon = system: COLO 205 colon
DU-145 prostate = system: DU-145 prostate
EKVX NSCLC = system: EKVX NSCLC
HCC-2998 colon = system: HCC-2998 colon
HCT-116 colon = system: HCT-116 colon
HCT-15 colon = system: HCT-15 colon
HL-60(TB) leukemia = system: HL-60(TB) leukemia
HOP-62 NSCLC = system: HOP-62 NSCLC
HOP-92 NSCLC = system: HOP-92 NSCLC
HS 578T breast = system: HS 578T breast
HT29 colon = system: HT29 colon
IGROV1 ovarian = system: IGROV1 ovarian
K-562 leukemia = system: K-562 leukemia
KM12 colon = system: KM12 colon
LOX IMVI melanoma = system: LOX IMVI melanoma
M14 melanoma = system: M14 melanoma
MALME-3M melanoma = system: MALME-3M melanoma
MCF7 breast = system: MCF7 breast
MDA-MB-231 breast = system: MDA-MB-231 breast
MDA-MB-435 = system: MDA-MB-435
MDA-N = system: MDA-N
MOLT-4 leukemia = system: MOLT-4 leukemia
NCI-H226 lung = system: NCI-H226 lung
NCI-H23 lung = system: NCI-H23 lung
NCI-H460 lung = system: NCI-H460 lung
NCI-H522 lung = system: NCI-H522 lung
NCI/ADR-RES ovarian = system: NCI/ADR-RES ovarian
OVCAR-3 ovarian = system: OVCAR-3 ovarian
OVCAR-4 ovarian = system: OVCAR-4 ovarian
OVCAR-5 ovarian = system: OVCAR-5 ovarian
OVCAR-8 ovarian = system: OVCAR-8 ovarian
PC-3 prostate = system: PC-3 prostate
RPMI-8226 leukemia = system: RPMI-8226 leukemia
RXF 393 renal = system: RXF 393 renal
SF-268 CNS = system: SF-268 CNS
SF-295 CNS = system: SF-295 CNS
SF-539 CNS = system: SF-539 CNS
SK-MEL-2 melanoma = system: SK-MEL-2 melanoma
SK-MEL-28 melanoma = system: SK-MEL-28 melanoma
SK-MEL-5 melanoma = system: SK-MEL-5 melanoma
SK-OV-3 ovarian = system: SK-OV-3 ovarian
SN12C renal = system: SN12C renal
SNB-19 CNS = system: SNB-19 CNS
SNB-75 CNS = system: SNB-75 CNS
SR leukemia = system: SR leukemia
SW-620 colon = system: SW-620 colon
T-47D breast = system: T-47D breast
TK-10 renal = system: TK-10 renal
U251 CNS = system: U251 CNS
UACC-257 melanoma = system: UACC-257 melanoma
UACC-62 melanoma = system: UACC-62 melanoma
UO-31 renal = system: UO-31 renal

Measured: TGI

Nc1nc(N)c2[nH]c(CNc3ccc(C(=O)O)cc3)nc2n1
> 100 µM: all assays above

Oc1[nH]c2ccccc2c1N=Nc1ccccc1Cl
41.6 µM: MDA-MB-231 breast
47.4 µM: U251 CNS
> 85.2 µM: RXF 393 renal
64.5 µM: SK-OV-3 ovarian
61.2 µM: CAKI-1 renal
> 64.7 µM: OVCAR-8 ovarian
15.2 µM: ACHN renal
> 93.8 µM: OVCAR-3 ovarian
31.1 µM: 786-0 renal
97.7 µM: SN12C renal
34.3 µM: SR leukemia
> 79.6 µM: SNB-75 CNS
14.6 µM: OVCAR-4 ovarian
> 83.6 µM: SNB-19 CNS
> 79.9 µM: A498 renal
32.8 µM: TK-10 renal
40.6 µM: HOP-62 NSCLC
not listed: HOP-92 NSCLC
> 100 µM: all other assays above

O=c1[nH]c(-c2ccc3ccccc3c2)nc2ccccc12
50.2 µM: HOP-62 NSCLC
54.4 µM: OVCAR-8 ovarian
60.9 µM: UO-31 renal
13.4 µM: TK-10 renal
51.4 µM: SNB-19 CNS
80.2 µM: ACHN renal
28.6 µM: SNB-75 CNS
9.73 µM: OVCAR-4 ovarian
not listed: CCRF-CEM leukemia | SF-539 CNS
> 100 µM: all other assays above

COc1ccc(C(C)NNC(=O)c2ccncc2)c(OC)c1 (stereo not drawn)
> 100 µM: all assays above
